Entries after “also recorded” stand apart in the source; their conditions may differ. Read-outs that look alike come from different tables or passages of the source. Non-standard residues stand in square brackets, D forms with d. Residues, ends and D or L forms follow the SMILES beside them. *: point of attachment. Biotin = O=C1N[C@H]2[C@H](CS[C@H]2CCCCC(=O)*)N1; pY = N[C@@H](Cc1ccc(OP(=O)(O)O)cc1)C(=O)O
Columns and labels:
[1] = biological target: T1, EAT-2 (Homo sapiens, UniProt O14796); assay: SPR binding of EAT-2 to immobilised phosphopeptides; conditions: 37°C
T1 construct: His-tag; made in house; host or cells: E. coli BL21(DE3)pLysS
T1 sequence (O14796 1-132): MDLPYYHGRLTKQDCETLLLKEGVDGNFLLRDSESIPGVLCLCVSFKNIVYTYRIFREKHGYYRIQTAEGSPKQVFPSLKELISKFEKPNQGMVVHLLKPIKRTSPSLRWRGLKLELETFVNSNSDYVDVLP
Text: (§1) Biotinylated EAT-2 was produced by expression of full length human EAT-2 with a C-terminal BirA tag ([…]) in the E coli expression vector pTrcHisA. Constructs encoding the 6xHis-tagged tandem SH2 domains plus the SH3 domains of PLCγ1 (Swiss-Prot: P19174, aa 536–863) and PLCγ2 (Swiss-Prot: P16885, aa 519–838) were generated in pTrcHisA (5′ joining sequence with BglII site underlined: gag atc tcc translates as EIS). The molecular weight (MW) and theoretical extinction coefficients (EC) of recombinant PLCγ1 and PLCγ2 SH2-SH2-SH3 domains were PLCγ1; MW = 42531, EC = 63,830 M^−1 cm^−1 and PLCγ2; MW = 42415, EC = 67,270 M^−1 cm^−1.
Soluble recombinant proteins were produced in BL21(DE3)pLysS E. coli (Calbiochem) at 37°C in 2TY medium and induced at OD 600 = 0.6 with 0.1 mM IPTG for 4 h or in 2XYT auto-induction (Formedium) medium overnight. Bacterial pellets were resuspended in ∼0.1 volume 10 mM HEPES pH7.4, 150 mM NaCl and used immediately or stored at −20°C in 10 ml aliquots. His-tag mediated protein purification was performed on a Co^2+ or Ni^2+ column by standard protocols. […] Where applicable, proteins were stored frozen in 10–25 mM HEPES pH 7.4, 200–300 mM NaCl (pH 7.4).All proteins were purified by size exclusion chromatography immediately prior to SPR analysis.
Measurements of protein-protein affinity were performed on BIAcore 3000 and T200 systems using CM5 or biotin capture chips (GE Healthcare Ltd, UK). Streptavidin was coupled to CM5 sensor chips using standard NHS/EDC chemical linkage, followed by immobilization of biotinylated peptides. The levels of peptide immobilized were approximately 25 and 50 response units respectively of single and tandem tyrosine motifs to facilitate saturating binding and limitation of “bridging” [22], [45]. Purified recombinant proteins were passed over the immobilized peptides at a range of concentrations in HBS-EP buffer, 10 mM HEPES pH 7.4, 150 mM NaCl, 3.4 mM EDTA, 0.005% surfactant, P20. Equilibrium binding coefficients and dissociation and association rates were calculated using BIAevaluation and/or GraphPad Prism 5.4 software.
The specificities of their SH2 domains overlap, introducing the concept of competition between them for ITSMs in cells where they are co-expressed, including NK cells.

[2] = biological target: T2, PLCγ1 (SH2-SH2-SH3) (Homo sapiens, UniProt P19174); assay: SPR binding of PLCγ1 SH2-SH2-SH3 to immobilised phosphopeptides; conditions: 37°C, ten two-fold dilutions, top concentration 1 μM, one-site specific binding model, curve shown in Figure 7B
T2 construct: PLCγ1 (Swiss-Prot: P19174, aa 536–863); 6xHis (N); made in house; host or cells: E. coli BL21(DE3)pLysS
T2 sequence (P19174 536-863): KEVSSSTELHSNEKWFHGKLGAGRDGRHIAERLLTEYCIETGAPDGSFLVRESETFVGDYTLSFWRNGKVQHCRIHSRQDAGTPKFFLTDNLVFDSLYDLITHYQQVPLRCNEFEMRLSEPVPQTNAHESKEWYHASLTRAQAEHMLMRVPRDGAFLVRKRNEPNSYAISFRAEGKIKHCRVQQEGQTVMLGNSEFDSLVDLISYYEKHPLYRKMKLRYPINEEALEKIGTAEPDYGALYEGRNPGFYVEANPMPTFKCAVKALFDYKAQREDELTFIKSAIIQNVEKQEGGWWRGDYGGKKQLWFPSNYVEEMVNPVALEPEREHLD
Text: as §1
(§2) Soluble recombinant proteins were produced in BL21(DE3)pLysS E. coli (Calbiochem) at 37°C in 2TY medium and induced at OD 600 = 0.6 with 0.1 mM IPTG for 4 h or in 2XYT auto-induction (Formedium) medium overnight. Bacterial pellets were resuspended in ∼0.1 volume 10 mM HEPES pH7.4, 150 mM NaCl and used immediately or stored at −20°C in 10 ml aliquots. His-tag mediated protein purification was performed on a Co^2+ or Ni^2+ column by standard protocols. […]
(§3) Measurements of protein-protein affinity were performed on BIAcore 3000 and T200 systems using CM5 or biotin capture chips (GE Healthcare Ltd, UK). […] Equilibrium binding coefficients and dissociation and association rates were calculated using BIAevaluation and/or GraphPad Prism 5.4 software. […]

[3] = biological target: T3, PLCγ2 (SH2-SH2-SH3) (Homo sapiens, UniProt P16885); assay: SPR binding of PLCγ2 SH2-SH2-SH3 to immobilised phosphopeptides; conditions: KD (Figure 7B), 37°C, ten two-fold dilutions, top concentration 1 μM, one-site specific binding model, curve shown in Figure 7B
T3 construct: PLCγ2 (Swiss-Prot: P16885, aa 519–838); 6xHis (N); made in house; host or cells: E. coli BL21(DE3)pLysS
T3 sequence (P16885 519-838): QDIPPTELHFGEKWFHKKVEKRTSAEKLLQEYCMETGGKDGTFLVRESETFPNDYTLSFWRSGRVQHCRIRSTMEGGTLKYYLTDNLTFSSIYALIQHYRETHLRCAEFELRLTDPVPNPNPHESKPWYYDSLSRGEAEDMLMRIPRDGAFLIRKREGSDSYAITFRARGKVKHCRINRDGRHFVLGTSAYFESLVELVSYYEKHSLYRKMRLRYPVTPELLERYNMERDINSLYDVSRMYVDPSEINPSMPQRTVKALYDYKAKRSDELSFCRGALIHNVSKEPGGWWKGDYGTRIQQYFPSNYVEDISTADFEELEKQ
Text: as §1, §2, §3

[4] = biological target: T4, SHIP SH2 from SHIP-1 (Homo sapiens, UniProt Q92835); assay: SPR binding of SHIP SH2 domain to immobilised phosphopeptides; conditions: 37°C, equilibrium binding analysis
T4 construct: the single SH2 domain from SHIP-1; His-tag; made in house; host or cells: E. coli BL21(DE3)pLysS
T4 sequence (Q92835 5-101 limits assumed): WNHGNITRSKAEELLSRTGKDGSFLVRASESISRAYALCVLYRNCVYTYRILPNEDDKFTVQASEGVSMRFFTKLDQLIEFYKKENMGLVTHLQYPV
Text: as §1
Measurements of protein-protein affinity were performed on BIAcore 3000 and T200 systems using CM5 or biotin capture chips (GE Healthcare Ltd, UK). Streptavidin was coupled to CM5 sensor chips using standard NHS/EDC chemical linkage, followed by immobilization of biotinylated peptides. The levels of peptide immobilized were approximately 25 and 50 response units respectively of single and tandem tyrosine motifs to facilitate saturating binding and limitation of “bridging” [22], [45]. […] Equilibrium binding coefficients and dissociation and association rates were calculated using BIAevaluation and/or GraphPad Prism 5.4 software. […]

[5] = biological target: T5, SAP (Homo sapiens, UniProt O60880); assay: SPR binding of SAP to immobilised phosphopeptides; conditions: 37°C
T5 construct: His-tag; made in house; host or cells: E. coli BL21(DE3)pLysS
T5 sequence (O60880 1-128): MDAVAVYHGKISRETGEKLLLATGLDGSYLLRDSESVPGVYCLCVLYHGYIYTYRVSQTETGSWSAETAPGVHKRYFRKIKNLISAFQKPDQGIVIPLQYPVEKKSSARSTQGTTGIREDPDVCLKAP

[6] = Pull-down with phosphorylated CD244 ITSM1 from NK cell lysates, LC-MS/MS; type: binding; conditions: human NK cell lysates; compared with control phosphopeptide SHIP-1 Y865
Protocol: For pull-down of associated proteins, streptavidin Sepharose (GE Healthcare) was pre-coated with saturating amounts of peptide or EAT-2. NK92 cells (4×10^8) were treated with 500 μM pervanadate for 15 minutes, then lysed in PBS, 1% Triton X-100, 1 mM sodium orthovanadate in the presence of mammalian protease inhibitor solution (Sigma). Lysates were pre-cleared by centrifugation, followed by incubation with streptavidin Sepharose. Peptide or EAT-2-coated streptavidin beads were incubated with NK92 lysates for 2 hours at 4°C with rotation. Beads were washed once with 15 ml ice cold PBS/1% (v/v) Triton X-100. Bound protein was eluted using 100 mM glycine-HCl pH 2.5.
Protein samples were prepared for mass spectrometry as described previously. Briefly, eluted proteins were spun onto the membranes of Vivacon 500 filters (10,000 MWCO – Sartorius). Membranes were washed once with PBS then proteins were denatured with 8 M urea, reduced with 10 mM DTT in 25 mM ammonium bicarbonate buffer, followed by alkylation with 50 mM iodoacetamide. Proteins were then digested overnight with trypsin. Tryptic peptides were then eluted from the membrane and analyzed on an Ultimate 3000 HPLC-coupled Orbitrap XL mass spectrometer. Proteins were identified by liquid chromatography-coupled tandem mass-spectrometry (LC-MS/MS). Raw data files were converted to mzXML format using ReADW (v. 4.2.1) and submitted to the Central Proteomics Facilities Pipeline for database comparison and peptide identification. Searching against the International Protein Index (IPI) human protein sequence database for protein identification, protein and peptide hits were statistically validated by applying a 1% false discovery rate (FDR) by searching against a concatenated target/decoy database. Datasets were searched with variable peptide modifications for phosphotyrosine, phosphoserine, phosphothreonine, oxidation of methionine and deamination.
Protein identification data were exported into ProteinCenter (v3.8.3013 – Thermo Fisher) for filtering and annotation. Results were filtered to remove any proteins with less than 3 unique peptides, less than 10 percent sequence coverage, or median protein probability scores less than 0.5. To establish sample specificity, any protein with at least 10-fold greater sequence coverage in one sample compared with the other was considered to be specific for that sample.
Similarly, differences in specificity of inhibitory SH2 domain containing proteins for ITSMs are relevant to understanding mechanisms of inhibition by ITSMs. We focused on CD244 ITSMs to establish general paradigms.

[7] = ten two-fold dilutions, top concentration 0.3 μM, one-site specific binding model, curve shown in Figure 2B, read-out: KD (Figure 2B)

Compound: CC[C@H](C)[C@H](NC(=O)[C@@H](NC(=O)[C@H](CC(C)C)NC(=O)[C@H](Cc1ccccc1)NC(=O)[C@H](CCC(=O)O)NC(=O)CCCC[C@@H]1SC[C@@H]2NC(=O)N[C@@H]21)[C@@H](C)O)C(=O)N[C@@H](Cc1ccc(OP(=O)(O)O)cc1)C(=O)N[C@@H](CCC(=O)O)C(=O)N[C@@H](CC(=O)O)C(=O)N[C@H](C(=O)N[C@@H](CCCCN)C(=O)N[C@@H](CC(=O)O)C(=O)O)C(C)C [CD244 ITSM1]
- Kd ([1]; HBS-EP pH 7.4, soluble EAT-2, immobilised phosphopeptide, mean, n and range in own columns of Table 4, read-out: KD): 60 nM
- Kd [1, 7]: 12 nM
- Kd [2]: 130 nM
- Kd [3]: 360 nM

Compound: CC[C@H](C)[C@H](NC(=O)[C@H](CCSC)NC(=O)[C@H](CO)NC(=O)[C@H](Cc1ccc(OP(=O)(O)O)cc1)NC(=O)[C@@H](NC(=O)[C@@H](NC(=O)[C@H](CO)NC(=O)CNC(=O)CNC(=O)CCCC[C@@H]1SC[C@@H]2NC(=O)N[C@@H]21)[C@@H](C)O)[C@@H](C)CC)C(=O)N[C@@H](CCC(N)=O)C(=O)N[C@@H](CO)C(=O)O [CD244 ITSM2]
- binding of SHIP SH2 domain [4]: preference of SHIP SH2 domain

Compound: CC[C@H](C)[C@H](NC(=O)[C@H](CC(C)C)NC(=O)[C@H](CO)NC(=O)[C@H](Cc1ccc(OP(=O)(O)O)cc1)NC(=O)[C@H](CC(C)C)NC(=O)[C@@H](NC(=O)[C@H](Cc1ccc(O)cc1)NC(=O)[C@H](C)NC(=O)[C@@H]1CCCN1C(=O)CCCC[C@@H]1SC[C@@H]2NC(=O)N[C@@H]21)[C@@H](C)O)C(=O)N[C@@H](CCC(N)=O)C(=O)N1CCC[C@H]1C(=O)O [CD244 ITSM3] (Biotin-PAYTL[pY]SLIQP-OH; C-terminus assumed)
- binding of SHIP SH2 domain [4]: preference of SHIP SH2 domain

Compound: CC[C@H](C)[C@H](NC(=O)[C@H](CCC(=O)O)NC(=O)[C@@H](NC(=O)[C@@H](NC(=O)[C@H](CO)NC(=O)[C@H](Cc1ccc(OP(=O)(O)O)cc1)NC(=O)[C@@H](NC(=O)[C@@H](NC(=O)[C@H](CC(N)=O)NC(=O)[C@H](C)NC(=O)[C@@H]1CCCN1C(=O)CCCC[C@@H]1SC[C@@H]2NC(=O)N[C@@H]21)[C@@H](C)O)C(C)C)[C@@H](C)O)C(C)C)C(=O)O [CRACC ITSM2] (Biotin-PANTV[pY]STVEI-OH)
- Kd [1, 7]: 1 nM

Compound: CC(C)C[C@H](NC(=O)[C@@H](NC(=O)[C@H](CC(=O)O)NC(=O)[C@@H](NC(=O)[C@H](Cc1ccc(OP(=O)(O)O)cc1)NC(=O)[C@H](CC(=O)O)NC(=O)[C@H](CO)NC(=O)[C@H](CC(N)=O)NC(=O)[C@H](CO)NC(=O)[C@H](CC(N)=O)NC(=O)CCCC[C@@H]1SC[C@@H]2NC(=O)N[C@@H]21)C(C)C)C(C)C)C(=O)N1CCC[C@H]1C(=O)O [EAT-2 Y127] (Biotin-NSNSD[pY]VDVLP-OH)
- Kd [2]: 18 nM
- Kd [3]: 87 nM

Compound: Biotin-GENTEpYDTIPH [CRACC ITSM1, synthetic biotinylated phosphopeptide from human CRACC ITSM1]
- binding of SAP [5]: Neither SAP nor EAT-2 bound; also recorded: No specific association
- binding of EAT-2 [1]: Neither SAP nor EAT-2 bound; also recorded: No specific association

Compound: Growth factor receptor-bound protein 2 (GRB2): SH2 domain containing protein pulled down by CD244 ITSM1
- pull-down by CD244 ITSM1 [6]: pulled down by the ITSM peptide

Compound: SHP-1: SH2 domain containing phosphatase
- pull-down by CD244 ITSM1 [6]: pulled down by the ITSM peptide

Compound: SHP-2: SH2 domain containing tyrosine phosphatase
- pull-down by CD244 ITSM1 [6]: pulled down by the ITSM peptide

From article PMC3958483, “Fine Specificity and Molecular Competition in SLAM Family Receptor Signalling” (PLoS ONE, 2014)
